“And” between values parts separate entries of the source, which are not always exact repeats. Identical values can stand only once.
Tests used:
Format in all cases: cell-based
[1] = test system: glutamatergic pyramidal neurons from mouse layer five neocortex; experiment: Current-clamp recording in brain slices, action-potential firing; details: for WT Cortical pyramidal neurons APs/1s: 0.25 μM, individual neurons; for Cumulative number of action potentials fired by each cell on increasing current injections: 250 nM, WT cortical pyramidal neurons
Experimental: Parasagittal cortical brain slices were prepared from> P21 mice using standard procedures (adapted from Tai et al., PNAS 2014). Briefly, the mouse was deeply anaesthetized with isoflurane and decapitated. The brain was removed and placed into chilled artificial cerebrospinal fluid (aCSF) solution containing (in mM): 125 NaCl, 25 NaHCO3, 2.5 KCl, 1.25 NaH2PO4, 2 CaCl2, 2 MgCl2, 10 d-glucose, pH 7.3, osmolarity adjusted to ~306 mOsm using sucrose. All solutions were saturated with 95% O2 and 5% CO2 constantly perfused with 95% O2/5% CO2. Slices with a thickness of 400 µm were prepared using a vibratome (Ted Pella, Inc). Following sectioning, the slices were placed in a holding chamber and incubated in a water bath at 34 °C for 15 min. The brain slices were removed from the water bath and held at room temperature for 60 min prior to recording.
All experiments involving rodent subjects were performed in accordance with the guidelines of the Canadian Council on Animal Care (CCAC). Following a 60-min incubation at room temperature, a brain slice was selected and placed on the stage of an upright microscope (SliceScope Pro 2000, Scientifica). The slice was constantly perfused with room temperature aCSF, containing 0.1% DMSO as a vehicle control, and oxygenated with 95% O2/5% CO2.The slice was visualized using brightfield microscopy, and a healthy neuron was selected from neocortical layer 5. […] Stimulation was applied in current-clamp mode, and consisted of a series of 1000ms square pulses, beginning at –20 pA and increasing by +20 pA increments (3000ms between pulses).
The slice was incubated in circulating compound for 10 min before repeating the series of square pulse stimulations. Working stock solutions were prepared in DMSO at a concentration of 20 mM.
All data analysis was done offline using ClampFit 10.7 (Molecular Devices). Data are presented as a mean ± SEM. For each sweep, the number of evoked APs was counted, and plotted as a function of current injection (beginning with –20 pA). […] Statistical significance was assessed using paired, two-way, student’s t-test applied at each current injection level with significance considered p < 0.05.

hNaV1.6 N1466K = biological target: T1, hNaV1.6 N1466K (Homo sapiens, UniProt Q9UQD0, N1466K); experiment: Automated patch-clamp, patient-identified variant in Expi293F cells; parameters: h1.6 -N1466K 145756, Mean: scale not given here
T1 construct: expression vector containing the full-length cDNA coding for specific human and mouse sodium channel α-subunit; expressed in transfected cells; host or cells: Expi293F (transient, tetracycline-induced, pcDNA4/TO)
Experimental: (§1) For studies of mutant channels, cDNA plasmids in pcDNA4/TO Mammalian Expression Vector were transiently transfected into Expi293F cells stably expressing human FHF2b and human SCN1B subunit (polyclonal) background using ExpiFectamine 293 Transfection Kits (Gibco,Thermo Fisher Scientific CAT #: A14524). Induction was achieved using Tetracycline (Sigma Aldrich). Transfected cells were used in automated patch-clamp experiments 24 hours postinduction.
(§2) Inorm(CPD)=(ICPD−Icontrol)/(ITTX−Icontrol).

hNaV1.6 N984K = biological target: T2, hNaV1.6 N984K (Homo sapiens, UniProt Q9UQD0, N984K); experiment: as above; parameters: h1.6-N984K 145756, Mean: scale not given here
T2 construct: expression vector containing the full-length cDNA coding for specific human and mouse sodium channel α-subunit; expressed in transfected cells; host or cells: Expi293F (transient, tetracycline-induced, pcDNA4/TO)
Experimental: as §1, §2

T2 sequence (Q9UQD0 whole entry N984K): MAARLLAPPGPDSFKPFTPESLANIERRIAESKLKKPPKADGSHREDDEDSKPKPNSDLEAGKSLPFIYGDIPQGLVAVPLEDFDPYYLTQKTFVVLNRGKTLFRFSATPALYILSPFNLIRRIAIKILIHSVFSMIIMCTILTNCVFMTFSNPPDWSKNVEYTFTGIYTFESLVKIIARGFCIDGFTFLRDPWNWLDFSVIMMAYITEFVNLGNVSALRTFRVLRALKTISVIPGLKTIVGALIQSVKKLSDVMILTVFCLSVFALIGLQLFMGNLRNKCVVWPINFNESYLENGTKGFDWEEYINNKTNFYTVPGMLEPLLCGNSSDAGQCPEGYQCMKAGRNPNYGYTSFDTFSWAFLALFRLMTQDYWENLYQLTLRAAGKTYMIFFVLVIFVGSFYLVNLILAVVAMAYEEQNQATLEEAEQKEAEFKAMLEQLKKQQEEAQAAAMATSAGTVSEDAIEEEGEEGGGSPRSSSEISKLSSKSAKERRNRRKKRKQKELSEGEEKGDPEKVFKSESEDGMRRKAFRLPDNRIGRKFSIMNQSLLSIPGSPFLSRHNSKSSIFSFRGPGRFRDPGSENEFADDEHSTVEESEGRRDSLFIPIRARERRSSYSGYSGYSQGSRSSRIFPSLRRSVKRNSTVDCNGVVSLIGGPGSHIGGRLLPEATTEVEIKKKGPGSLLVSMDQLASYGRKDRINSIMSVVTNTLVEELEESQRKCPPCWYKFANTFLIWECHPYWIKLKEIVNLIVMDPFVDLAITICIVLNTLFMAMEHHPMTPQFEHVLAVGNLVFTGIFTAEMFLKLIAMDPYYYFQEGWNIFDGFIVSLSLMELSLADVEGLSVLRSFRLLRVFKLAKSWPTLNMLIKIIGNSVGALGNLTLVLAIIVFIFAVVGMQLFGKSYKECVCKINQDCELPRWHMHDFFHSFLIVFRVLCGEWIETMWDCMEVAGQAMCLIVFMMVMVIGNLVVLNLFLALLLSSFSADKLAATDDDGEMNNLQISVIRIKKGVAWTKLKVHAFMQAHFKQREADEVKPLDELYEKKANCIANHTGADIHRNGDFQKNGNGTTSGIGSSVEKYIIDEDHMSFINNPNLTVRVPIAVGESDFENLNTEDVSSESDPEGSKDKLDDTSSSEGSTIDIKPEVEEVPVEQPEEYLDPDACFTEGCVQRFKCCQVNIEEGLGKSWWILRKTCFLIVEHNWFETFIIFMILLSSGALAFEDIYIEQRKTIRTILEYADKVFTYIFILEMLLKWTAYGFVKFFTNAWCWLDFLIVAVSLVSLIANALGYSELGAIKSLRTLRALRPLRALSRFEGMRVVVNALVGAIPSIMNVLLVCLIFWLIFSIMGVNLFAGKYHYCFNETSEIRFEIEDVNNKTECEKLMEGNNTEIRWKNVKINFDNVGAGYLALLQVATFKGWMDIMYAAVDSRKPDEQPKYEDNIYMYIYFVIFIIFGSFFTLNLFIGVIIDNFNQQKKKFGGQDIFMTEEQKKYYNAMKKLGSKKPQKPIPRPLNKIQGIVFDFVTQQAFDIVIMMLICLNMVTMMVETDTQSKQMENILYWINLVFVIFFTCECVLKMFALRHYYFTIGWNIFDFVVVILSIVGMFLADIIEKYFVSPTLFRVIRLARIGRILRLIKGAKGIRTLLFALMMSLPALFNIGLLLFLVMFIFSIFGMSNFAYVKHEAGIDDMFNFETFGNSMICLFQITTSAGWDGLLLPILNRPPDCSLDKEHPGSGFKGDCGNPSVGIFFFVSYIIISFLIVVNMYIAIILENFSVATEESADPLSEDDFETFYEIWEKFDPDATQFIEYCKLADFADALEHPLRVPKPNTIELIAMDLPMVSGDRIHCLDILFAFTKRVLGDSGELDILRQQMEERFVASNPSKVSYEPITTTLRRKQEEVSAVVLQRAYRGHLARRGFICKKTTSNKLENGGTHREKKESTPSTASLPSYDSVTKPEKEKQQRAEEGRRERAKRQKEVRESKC
T1 sequence (Q9UQD0 whole entry N1466K): as the sequence (Q9UQD0 whole entry N984K) above, with K984N, N1466K counted along it

SMILES: Cc1cc(S(=O)(=O)Nc2cscn2)c(F)cc1N(C)[C@H]1CCN(Cc2ccccc2)C1 [NBI-921352]
- WT Cortical pyramidal neurons APs/1s ([1]; current injected 100 pA, row): 0 APs/1s and 6 APs/1s and 8 APs/1s
- WT Cortical pyramidal neurons APs/1s ([1]; current injected 120 pA, row): 0 APs/1s and 7 APs/1s and 9 APs/1s
- WT Cortical pyramidal neurons APs/1s ([1]; current injected 140 pA, row): 0 APs/1s and 8 APs/1s and 10 APs/1s
- WT Cortical pyramidal neurons APs/1s ([1]; current injected 160 pA, row): 0 APs/1s and 9 APs/1s and 12 APs/1s
- WT Cortical pyramidal neurons APs/1s ([1]; current injected 180 pA, row): 0 APs/1s and 11 APs/1s (2×)
- WT Cortical pyramidal neurons APs/1s ([1]; current injected 200 pA, row): 0 APs/1s and 12 APs/1s and 13 APs/1s
- WT Cortical pyramidal neurons APs/1s ([1]; current injected 220 pA, row): 1 APs/1s and 13 APs/1s and 14 APs/1s
- WT Cortical pyramidal neurons APs/1s ([1]; current injected 240 pA, row): 3 APs/1s and 14 APs/1s and 15 APs/1s
- WT Cortical pyramidal neurons APs/1s ([1]; current injected 260 pA, row): 4 APs/1s and 15 APs/1s and 13 APs/1s
- WT Cortical pyramidal neurons APs/1s ([1]; current injected 280 pA, row): 4 APs/1s and 15 APs/1s and 13 APs/1s
- WT Cortical pyramidal neurons APs/1s ([1]; current injected 300 pA, row): 4 APs/1s and 17 APs/1s and 13 APs/1s
- WT Cortical pyramidal neurons APs/1s ([1]; current injected 320 pA, row): 5 APs/1s and 18 APs/1s and 13 APs/1s
- WT Cortical pyramidal neurons APs/1s ([1]; current injected 340 pA, row): 5 APs/1s and 19 APs/1s and 12 APs/1s
- WT Cortical pyramidal neurons APs/1s ([1]; current injected 360 pA, row): 6 APs/1s and 20 APs/1s and 12 APs/1s
- WT Cortical pyramidal neurons APs/1s ([1]; current injected 380 pA, row): 7 APs/1s (2×) and 21 APs/1s
- WT Cortical pyramidal neurons APs/1s ([1]; current injected 400 pA, row): 8 APs/1s and 22 APs/1s and 13 APs/1s
- WT Cortical pyramidal neurons APs/1s ([1]; current injected 420 pA, row): 7 APs/1s and 22 APs/1s and 5 APs/1s
- WT Cortical pyramidal neurons APs/1s ([1]; current injected 440 pA, row): 7 APs/1s and 23 APs/1s and 4 APs/1s
- WT Cortical pyramidal neurons APs/1s ([1]; current injected -20 pA): 0 APs/1s
- Cumulative number of action potentials fired by each cell on increasing current injections ([1]; up to current injected 0 pA): 0
- Cumulative number of action potentials fired by each cell on increasing current injections ([1]; up to current injected 20 pA): 0
- Cumulative number of action potentials fired by each cell on increasing current injections ([1]; up to current injected 40 pA): 0
- Cumulative number of action potentials fired by each cell on increasing current injections ([1]; up to current injected -20 pA): 0
- IC50 (hNaV1.6 N1466K): 39 nM
- h1.6 -N1466K 145756, Mean (hNaV1.6 N1466K; -5 LogM): 0.92
- h1.6 -N1466K 145756, Mean (hNaV1.6 N1466K; -5.47716 LogM): 0.94
- h1.6 -N1466K 145756, Mean (hNaV1.6 N1466K; -5.95429 LogM): 0.81
- h1.6 -N1466K 145756, Mean (hNaV1.6 N1466K; -6.4318 LogM): 0.73
- h1.6 -N1466K 145756, Mean (hNaV1.6 N1466K; -6.91009 LogM): 0.69
- h1.6 -N1466K 145756, Mean (hNaV1.6 N1466K; -7.38722 LogM): 0.47
- h1.6 -N1466K 145756, Mean (hNaV1.6 N1466K; -7.85387 LogM): 0.32
- h1.6 -N1466K 145756, Mean (hNaV1.6 N1466K; -8.33 LogM): 0.15
- IC50 (hNaV1.6 N984K): 32 nM
- h1.6-N984K 145756, Mean (hNaV1.6 N984K; -5 LogM): 0.94
- h1.6-N984K 145756, Mean (hNaV1.6 N984K; -5.47716 LogM): 0.92
- h1.6-N984K 145756, Mean (hNaV1.6 N984K; -5.95429 LogM): 0.89
- h1.6-N984K 145756, Mean (hNaV1.6 N984K; -6.4318 LogM): 0.81
- h1.6-N984K 145756, Mean (hNaV1.6 N984K; -6.91009 LogM): 0.66
- h1.6-N984K 145756, Mean (hNaV1.6 N984K; -7.38722 LogM): 0.56
- h1.6-N984K 145756, Mean (hNaV1.6 N984K; -7.85387 LogM): 0.33
- h1.6-N984K 145756, Mean (hNaV1.6 N984K; -8.33 LogM): 0.09

Reference: article PMC8903829 (eLife, 2022)
